In US11319299B2, “Substituted carboxamides as inhibitors of WDR5 protein-protein binding” (PROPELLON THERAPEUTICS INC., priority 2016, dated 2022):

The compounds below were run against WDR5 (Homo sapiens (Human), UniProt P61964) (assay: Surface Plasmon Resonance (SPR) assay, KD and residence time). Details: surface plasmon resonance (SPR) assay; read-out: WDR5 binding affinity (KD).
Assay type: binding

Row | SMILES | Kd
1 | CC1CN(c2ncc(-c3cc(NC(=O)c4c[nH]c(=O)cc4C(F)(F)F)c(N4C[C@@H](C)N(C)[C@@H](C)C4)cc3F)cn2)CCO1 (stereo in doubt) [Example 390, N-[4-fluoro-5-[2-[(2R)-2-methylmorpholin-4-yl]pyrimidin-5-yl]-2-[(3S,5R)-3,4,5-trimethylpiperazin-1-yl]phenyl]-6-oxo-4-(trifluoromethyl)-1H-pyridine-3-carboxamide] | 0.634 nM

Same assay, conditions: surface plasmon resonance (SPR); read-out: WDR5 binding affinity (KD)

Row | SMILES | Kd
2 | CC1CN(c2ncc(-c3cc(NC(=O)c4c[nH]c(=O)cc4C(F)F)c(N4C[C@@H](C)N(C)[C@@H](C)C4)cc3F)cn2)CCO1 (stereo in doubt) [Example 397, 4-(difluoromethyl)-N-[4-fluoro-5-[2-[(2R)-2-methylmorpholin-4-yl]pyrimidin-5-yl]-2-[(3S,5R)-3,4,5-trimethylpiperazin-1-yl]phenyl]-6-oxo-1H-pyridine-3-carboxamide] | 0.68 nM
3 | C[C@@H]1CN(c2ncc(-c3cc(NC(=O)c4c[nH]c(=O)cc4C(F)(F)F)c(N4CCC(N(C)C)C4)cc3F)cn2)C[C@H](C)O1 (stereo in doubt) [Example 417, N-[4-fluoro-2-[(3S)-3-(dimethylamino)pyrrolidin-1-yl]-5-[2-[(2R,6S)-2,6-dimethylmorpholin-4-yl]pyrimidin-5-yl]phenyl]-6-oxo-4-(trifluoromethyl)-1H-pyridine-3-carboxamide] | 1.41 nM
4 | CC1CN(c2cc(F)c(-c3ccc(N4C[C@@H](C)O[C@@H](C)C4)nc3)cc2NC(=O)c2ccc(F)cc2C(F)(F)F)CCN1C (stereo in doubt) [Example 423, 4-fluoro-N-[4-fluoro-5-[6-[(2R,6S)-2,6-dimethylmorpholin-4-yl]pyridin-3-yl]-2-[(3R)-3,4-dimethylpiperazin-1-yl]phenyl]-2-(trifluoromethyl)benzamide] | 1.93 nM
5 | CC1CN(c2cc(F)c(-c3cnc(N4CCC(C)(O)CC4)nc3)cc2NC(=O)c2c[nH]c(=O)cc2C(F)(F)F)CCN1C (stereo in doubt) [Example 424, N-[4-fluoro-5-[2-(4-hydroxy-4-methylpiperidin-1-yl)pyrimidin-5-yl]-2-[(3R)-3,4-dimethylpiperazin-1-yl]phenyl]-6-oxo-4-(trifluoromethyl)-1H-pyridine-3-carboxamide] | 0.609 nM
6 | C[C@@H]1CN(c2ccc(-c3cc(NC(=O)c4c[nH]c(=O)cc4C(F)(F)F)c(N4CCN(C)[C@H](C)C4)cc3F)cn2)CCO1 (stereo in doubt) [Example 433, N-[4-fluoro-2-[(3R)-3,4-dimethylpiperazin-1-yl]-5-[6-[(2R)-2-methylmorpholin-4-yl]pyridin-3-yl]phenyl]-6-oxo-4-(trifluoromethyl)-1H-pyridine-3-carboxamide] | 2.84 nM
7 | CC1CN(c2cc(F)c(-c3cnc(N4CCN(C5CC5)CC4)nc3)cc2NC(=O)c2ccc(F)cc2C(F)(F)F)CCN1C (stereo in doubt) [Example 435, N-[5-[2-(4-cyclopropylpiperazin-1-yl)pyrimidin-5-yl]-4-fluoro-2-[(3R)-3,4-dimethylpiperazin-1-yl]phenyl]-4-fluoro-2-(trifluoromethyl)benzamide] | 1.47 nM
8 | CC1CN(c2cc(F)c(-c3ccc(N4CCOCC4)c(F)c3)cc2NC(=O)c2c[nH]c(=O)cc2C(F)F)CCN1C (stereo in doubt) [Example 448, 4-(difluoromethyl)-N-[4-fluoro-5-(3-fluoro-4-morpholin-4-ylphenyl)-2-[(3R)-3,4-dimethylpiperazin-1-yl]phenyl]-6-oxo-1H-pyridine-3-carboxamide] | 1.01 nM
9 | C[C@@H]1CN(c2ncc(-c3cc(NC(=O)c4cn(C)c(=O)cc4C(F)(F)F)c(N4CCN(C)[C@H](C)C4)cc3F)cn2)CCO1 (stereo in doubt) [Example 450, N-[4-fluoro-2-[(3R)-3,4-dimethylpiperazin-1-yl]-5-[2-[(2R)-2-methylmorpholin-4-yl]pyrimidin-5-yl]phenyl]-1-methyl-6-oxo-4-(trifluoromethyl)pyridine-3-carboxamide] | 1.02 nM
10 | CC1CN(c2ncc(-c3cc(NC(=O)c4ccc(F)cc4C(F)(F)F)c(N4C[C@@H](C)N(C)[C@@H](C)C4)cc3F)cn2)CCO1 (stereo in doubt) [Example 453, 4-fluoro-N-[4-fluoro-5-[2-[(2R)-2-methylmorpholin-4-yl]pyrimidin-5-yl]-2-[(3S,5R)-3,4,5-trimethylpiperazin-1-yl]phenyl]-2-(trifluoromethyl)benzamide] | 0.822 nM
11 | O=C(Nc1cc(-c2cnc(N3CCOCC3)nc2)c(F)cc1N1C[C@H]2CCN[C@H]2C1)c1c[nH]c(=O)cc1C(F)(F)F (stereo in doubt) [Example 463, N-[4-fluoro-5-(2-morpholin-4-ylpyrimidin-5-yl)-2-[(3aR,6aR)-2,3,3a,4,6,6a-hexahydro-1H-pyrrolo[2,3-c]pyrrol-5-yl]phenyl]-6-oxo-4-(trifluoromethyl)-1H-pyridine-3-carboxamide] | 168 nM
12 | CC1COCCN1c1ncc(-c2cc(NC(=O)c3cn(C)c(=O)cc3C(F)F)c(N3C[C@@H](C)N(C)[C@@H](C)C3)cc2F)cn1 (stereo in doubt) [Example 475, 4-(difluoromethyl)-N-[4-fluoro-5-[2-[(3R)-3-methylmorpholin-4-yl]pyrimidin-5-yl]-2-[(3S,5R)-3,4,5-trimethylpiperazin-1-yl]phenyl]-1-methyl-6-oxopyridine-3-carboxamide] | 3.52 nM
13 | CCCN1CC[C@@H]2CN(c3cc(F)c(-c4cnc(N5CCOCC5)nc4)cc3NC(=O)c3c[nH]c(=O)cc3C(F)(F)F)C[C@@H]21 (stereo in doubt) [Example 476, N-[4-fluoro-5-(2-morpholin-4-ylpyrimidin-5-yl)-2-[(3aR,6aR)-1-propyl-2,3,3a,4,6,6a-hexahydropyrrolo[2,3-c]pyrrol-5-yl]phenyl]-6-oxo-4-(trifluoromethyl)-1H-pyridine-3-carboxamide] | 9.71 nM
14 | CN1CC[C@@H]2CN(c3cc(F)c(-c4cnc(N5CCOCC5)nc4)cc3NC(=O)c3c[nH]c(=O)cc3C(F)(F)F)C[C@@H]21 (stereo in doubt) [Example 477, N-[4-fluoro-5-(2-morpholin-4-ylpyrimidin-5-yl)-2-[(3aR,6aR)-1-methyl-2,3,3a,4,6,6a-hexahydropyrrolo[2,3-c]pyrrol-5-yl]phenyl]-6-oxo-4-(trifluoromethyl)-1H-pyridine-3-carboxamide] | 24.2 nM
15 | CC1CN(c2cc(F)c(-c3ccc(N4CCOCC4)c(F)c3)cc2NC(=O)c2cn(C)c(=O)cc2C(F)F)CCN1C (stereo in doubt) [Example 478, 4-(difluoromethyl)-N-[4-fluoro-5-(3-fluoro-4-morpholin-4-ylphenyl)-2-[(3R)-3,4-dimethylpiperazin-1-yl]phenyl]-1-methyl-6-oxopyridine-3-carboxamide] | 5.32 nM
16 | CC1CN(c2cc(F)c(-c3cnc(N4CCOCC4)nc3)cc2NC(=O)c2c[nH]c(=O)c(C(F)(F)F)c2)CCN1C (stereo in doubt) [Example 495, N-[4-fluoro-5-(2-morpholin-4-ylpyrimidin-5-yl)-2-[(3R)-3,4-dimethylpiperazin-1-yl]phenyl]-6-oxo-5-(trifluoromethyl)-1H-pyridine-3-carboxamide] | 24.9 nM
17 | C[C@@H]1CN(c2ccc(-c3cc(NC(=O)c4c[nH]c(=O)cc4C(F)F)c(N4CCN(C)[C@H](C)C4)cc3F)cn2)CCO1 (stereo in doubt) [Example 507, 4-(difluoromethyl)-N-[4-fluoro-2-[(3R)-3,4-dimethylpiperazin-1-yl]-5-[6-[(2R)-2-methylmorpholin-4-yl]pyridin-3-yl]phenyl]-6-oxo-1H-pyridine-3-carboxamide] | 1.76 nM
18 | CC1CN(c2ccc(-c3cc(NC(=O)c4c[nH]c(=O)cc4C(F)F)c(N4C[C@@H](C)N(C)[C@@H](C)C4)cc3F)cn2)CCO1 (stereo in doubt) [Example 510, 4-(difluoromethyl)-N-[4-fluoro-5-[6-[(2R)-2-methylmorpholin-4-yl]pyridin-3-yl]-2-[(3S,5R)-3,4,5-trimethylpiperazin-1-yl]phenyl]-6-oxo-1H-pyridine-3-carboxamide] | 0.623 nM
19 | CC1CN(c2ccc(-c3cc(NC(=O)c4cn(C)c(=O)cc4C(F)F)c(N4C[C@@H](C)N(C)[C@@H](C)C4)cc3F)cn2)CCO1 (stereo in doubt) [Example 517, 4-(Difluoromethyl)-N-[4-fluoro-5-[6-[(2R)-2-methylmorpholin-4-yl]pyridin-3-yl]-2-[(3S,5R)-3,4,5-trimethylpiperazin-1-yl]phenyl]-1-methyl-6-oxopyridine-3-carboxamide] | 5.97 nM
20 | C[C@@H]1CN(c2ccc(-c3cc(NC(=O)c4cn(C)c(=O)cc4C(F)F)c(N4CCN(C)[C@H](C)C4)cc3F)cn2)CCO1 (stereo in doubt) [Example 519, 4-(difluoromethyl)-N-[4-fluoro-2-[(3R)-3,4-dimethylpiperazin-1-yl]-5-[6-[(2R)-2-methylmorpholin-4-yl]pyridin-3-yl]phenyl]-1-methyl-6-oxopyridine-3-carboxamide] | 3.39 nM
21 | CC1CN(c2cc(F)c(-c3ccc(N4CCNCC4)nc3)cc2NC(=O)c2ccc(F)cc2C(F)(F)F)CCN1C (stereo in doubt) [Example 530, 4-fluoro-N-[4-fluoro-5-(6-piperazin-1-ylpyridin-3-yl)-2-[(3R)-3,4-dimethylpiperazin-1-yl]phenyl]-2-(trifluoromethyl)benzamide] | 2.16 nM
22 | CC1CN(c2cc(F)c(-c3ccc(F)c(C(N)=O)c3)cc2NC(=O)c2ccc(F)cc2C(F)(F)F)CCN1C (stereo in doubt) [Example 554, 2-fluoro-5-[2-fluoro-5-[[4-fluoro-2-(trifluoromethyl)benzoyl]amino]-4-[(3R)-3,4-dimethylpiperazin-1-yl]phenyl]benzamide] | 5.3 nM
23 | CC1CN(c2cc(F)c(-c3ccc(C(N)=O)c(F)c3)cc2NC(=O)c2ccc(F)cc2C(F)(F)F)CCN1C (stereo in doubt) [Example 555, 2-fluoro-4-[2-fluoro-5-[[4-fluoro-2-(trifluoromethyl)benzoyl]amino]-4-[(3R)-3,4-dimethylpiperazin-1-yl]phenyl]benzamide] | 2.94 nM
